Counter-ions that a name gives are not always drawn.
How the values were obtained:
Solubility (qualitative) = format: physicochemical; settings: for solubility in hydrochloric acid: (diluted) hydrochloric acid; for solubility in sodium hydroxide / alkaline solutions: aqueous sodium hydroxide or alkaline solutions
[1] = pH of the aqueous solution; format: physicochemical; settings: dissolved in the previously-calculated amount of sodium hydroxide
male mice (strain CD) = assay: Acute toxicity (LD50, Litchfield and Wilcoxon); format: in vivo; settings: intraperitoneal, 8 days survey
Excerpt: The acute toxicity of these compounds has been determined on batches of male mice (strain CD) weighing about 20 g. They received the compounds to be tested at increasing doses either intraperitoneally or orally.
The animals are kept under survey for eight days. The deaths when present are numbered.
The average lethal dosage is graphically calculated according to the method of Litchfield and Wilcoxon.

Molecule | solubility in sodium hydroxide / alkaline solutions (Solubility (qualitative)) | also measured
CCC(OC(c1ccc(N2CCCCCCC2)cc1)C(F)(F)F)C(=O)O (racemic) [XXV, dl-2-[[4-(heptamethyleneimino-1)phenyl-2,2,2-trifluoroethoxy)] butyric acid] | soluble in the aqueous solutions of sodium hydroxide | solubility in hydrochloric acid (Solubility (qualitative)): insoluble in hydrochloric acid
CCC(OC(c1ccc(N2CCCCC2)cc1)C(F)(F)F)C(=O)O (racemic) [Example XIV hydrochloride, dl-2-[1-(4-piperidinophenyl)-2-trifluoroethoxy]butyric acid] | – | solubility in water (Solubility (qualitative)): freely soluble in water
CCC(OC(c1ccccc1)C(F)(F)F)C(=O)N1CCCCC1 (stereo not drawn) [VIII, 1-[α-(2,2,2-trifluoro-1-phenylethoxy)butyryl]piperidine] | – | solubility in water (Solubility (qualitative)): insoluble in water
CCC(OC(c1ccc(Cl)cc1)C(F)(F)F)C(=O)O (stereo not drawn) [Example V (1), α-[2,2,2-trifluoro-1-(4-chlorophenyl)ethoxy]butyric acid] | soluble in an aqueous solution of sodium hydroxide | –
O=C(O)C(OC(c1ccccc1)C(F)(F)F)c1ccccc1 (racemic) [XVII, dl-2-(1-phenyl-2-trifluoroethoxy)phenyl acetic acid] | soluble in the dilute solutions of sodium hydroxide | –
CCC(OC(c1cccs1)C(F)(F)F)C(=O)O (racemic) [XVIII, dl-2-[1-(thienyl-2)-2,2,2-trifluoroethoxy]butyric acid] | soluble in dilute solutions of sodium hydroxide | –
CCC(OC(c1ccc(Cl)cc1)C(F)(F)F)C(=O)O (single isomer, unassigned) [Example IX (acid, isomer β), α-[2,2,2-trifluoro-1-(p-chlorophenylethoxy]butyric acid (isomer β)] | soluble in the previously-calculated amount of sodium hydroxide | –
CCC(OC(c1ccc(N2CCCCCC2)cc1)C(F)(F)F)C(=O)O (racemic) [XXIV, dl-2-[[4-(1-hexamethyleneimino)phenyl]-2,2,2-trifluoroethoxy] butyric acid] | soluble in the dilute aqueous solutions of sodium hydroxide | solubility in hydrochloric acid (Solubility (qualitative)): insoluble in diluted hydrochloric acid
CCC(OC(c1ccc(Oc2ccc(Cl)cc2)cc1)C(F)(F)F)C(=O)O (racemic) [XII, dl-2-[1-(4-chlorophenoxyphenyl)-2,2,2-trifluoroethoxy]butyric acid] | soluble in dilute sodium hydroxide solutions | –
CCC(OC(c1ccccc1)C(F)(F)F)C(=O)NO (stereo not drawn) [Example VI, α-(2,2,2-trifluoro-1-phenylethoxy)butyryl hydroxamic acid] | soluble in the previously-calculated amount of sodium hydroxide | –
CCC(OC(c1ccc(OC)cc1)C(F)(F)F)C(=O)O (stereo not drawn) [Example V (4-methoxyphenyl), α-[2,2,2-trifluoro-1-(4-methoxyphenyl)ethoxy]butyric acid] | soluble in alkaline solutions | solubility in water (Solubility (qualitative)): insoluble in water
CCC(OC(c1ccc2ccccc2c1)C(F)(F)F)C(=O)O (racemic) [XXII, dl-2-[1-(naphtyl-2)-2,2,2-trifluoroethoxy]butyric acid] | soluble in the previously-calculated amount of sodium hydroxide | –
CCC(OC(c1cccc2ccccc12)C(F)(F)F)C(=O)O (racemic) [XXI, Dl-2-[(naphtyl-1)-2,2,2-trifluoroethoxy]butyric acid] | soluble in the previously-calculated amount of sodium hydroxide | pH value of the aqueous solution [1]: 7-8
CCC(OC(c1ccccc1)C(F)(F)F)C(=O)O (stereo not drawn) [Example II, α-(2,2,2-trifluoro-1-phenyl-1-ethoxy)butyric acid] | soluble in the previously-calculated amount of sodium hydroxide in aqueous solution | –
CCC(OC(c1ccccc1)C(F)(F)F)C(=O)N1CCOCC1 (stereo not drawn) [Example VII, 4-[α-(2,2,2-trifluoro-1-phenylethoxy)butyryl]morpholine] | – | solubility in common organic solvents (Solubility (qualitative); common organic solvents): soluble in the common organic solvents; solubility in water (Solubility (qualitative)): insoluble in water
CC(OC(c1ccccc1)C(F)(F)F)C(=O)O (racemic) [IV, dl-α-(2,2,2-trifluoro-1-phenylethoxy)propionic acid] | dissolves in the stoichiometric amount of sodium hydroxide | –
CCC(OC(c1ccc(N2CCOCC2)cc1)C(F)(F)F)C(=O)O (racemic) [Example XV hydrochloride, dl-2-[1-(4-morpholinophenyl)-2-trifluoroethoxy]butyric acid] | – | solubility in water (Solubility (qualitative)): soluble in water
dl-2-[1-(p-chlorophenylethoxy)-2,2,2-trifluoroethoxy] butyric acid | – | mean lethal dose (LD50) (male mice (strain CD)): about 400 mg/kg
